Laboratory results from the supplement of paper PMC10307832.

How the values were obtained:
Test in all cases: relative viability (nuclei count vs DMSO), 5 days (fraction); higher = more cells survive
ABC-1 = system: ABC-1
Method in brief: (§1)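 Lung cancer cell lines in 1536-well plates got either a single drug or a fixed anchor-drug dose together with five library-drug doses (not always all listed) in √10 steps, by pin tool, on the day after seeding. Nuclei were counted after 5 days, and relative viability is the treated-to-vehicle ratio of nuclei counts. Values are medians of duplicate plates.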

CAL-12T = system: CAL-12T
Method in brief: as §1

ChaGo-K-1 = system: ChaGo-K-1
Method in brief: as §1

HCC-366 = system: HCC-366
Method in brief: as §1

HCC-78 = system: HCC-78
Method in brief: as §1

LC-2-ad = system: LC-2-ad
Method in brief: as §1

LOU-NH91 = system: LOU-NH91
Method in brief: as §1

LU99A = system: LU99A
Method in brief: as §1

NCI-H1395 = system: NCI-H1395
Method in brief: as §1

NCI-H1651 = system: NCI-H1651
Method in brief: as §1

NCI-H1755 = system: NCI-H1755
Method in brief: as §1

NCI-H1793 = system: NCI-H1793
Method in brief: as §1

NCI-H1944 = system: NCI-H1944
Method in brief: as §1

NCI-H2087 = system: NCI-H2087
Method in brief: as §1

NCI-H2170 = system: NCI-H2170
Method in brief: as §1

NCI-H2228 = system: NCI-H2228
Method in brief: as §1

NCI-H2405 = system: NCI-H2405
Method in brief: as §1

NCI-H3122 = system: NCI-H3122
Method in brief: as §1

NCI-H460 = system: NCI-H460
Method in brief: as §1

PC-3 [JPC-3] = system: PC-3 [JPC-3]
Method in brief: as §1

RERF-LC-KJ = system: RERF-LC-KJ
Method in brief: as §1

UMC-11 = system: UMC-11
Method in brief: as §1

COc1cc2nccc(Oc3ccc(NC(=O)Nc4cc(C)on4)c(Cl)c3)c2cc1OC [Tivozanib] + COc1cc2c(Oc3ccc(NC(=O)C4(C(=O)Nc5ccc(F)cc5)CC4)cc3F)ccnc2cc1OCCCN1CCOCC1 [Foretinib] (partner 0.25 µM)
relative viability (ABC-1; first compound 0.005 µM): 1.01 | relative viability (ABC-1; first compound 0.01581 µM): 1.21 | relative viability (ABC-1; first compound 0.05 µM): 1 | relative viability (ABC-1; first compound 0.1581 µM): 1.06 | relative viability (ABC-1; first compound 0.5 µM): 1.02 | relative viability (CAL-12T; first compound 0.005 µM): 1.07 | relative viability (CAL-12T; first compound 0.01581 µM): 0.998 | relative viability (CAL-12T; first compound 0.05 µM): 1.11 | relative viability (CAL-12T; first compound 0.1581 µM): 1.24 | relative viability (CAL-12T; first compound 0.5 µM): 0.916 | relative viability (ChaGo-K-1; first compound 0.005 µM): 0.841 | relative viability (ChaGo-K-1; first compound 0.01581 µM): 0.914 | relative viability (ChaGo-K-1; first compound 0.05 µM): 0.869 | relative viability (ChaGo-K-1; first compound 0.1581 µM): 0.889 | relative viability (ChaGo-K-1; first compound 0.5 µM): 0.86 | relative viability (HCC-366; first compound 0.005 µM): 0.934 | relative viability (HCC-366; first compound 0.01581 µM): 0.932 | relative viability (HCC-366; first compound 0.05 µM): 0.9 | relative viability (HCC-366; first compound 0.1581 µM): 0.969 | relative viability (HCC-366; first compound 0.5 µM): 0.861 | relative viability (HCC-78; first compound 0.005 µM): 0.539 | relative viability (HCC-78; first compound 0.01581 µM): 0.543 | relative viability (HCC-78; first compound 0.05 µM): 0.534 | relative viability (HCC-78; first compound 0.1581 µM): 0.556 | relative viability (HCC-78; first compound 0.5 µM): 0.546 | relative viability (LC-2-ad; first compound 0.005 µM): 0.917 | relative viability (LC-2-ad; first compound 0.01581 µM): 1.02 | relative viability (LC-2-ad; first compound 0.05 µM): 0.857 | relative viability (LC-2-ad; first compound 0.1581 µM): 0.972 | relative viability (LC-2-ad; first compound 0.5 µM): 0.788 | relative viability (LOU-NH91; first compound 0.005 µM): 0.874 | relative viability (LOU-NH91; first compound 0.01581 µM): 0.974 | relative viability (LOU-NH91; first compound 0.05 µM): 0.993 | relative viability (LOU-NH91; first compound 0.1581 µM): 0.982 | relative viability (LOU-NH91; first compound 0.5 µM): 0.962 | relative viability (LU99A; first compound 0.005 µM): 0.663 | relative viability (LU99A; first compound 0.01581 µM): 0.747 | relative viability (LU99A; first compound 0.05 µM): 0.836 | relative viability (LU99A; first compound 0.1581 µM): 0.653 | relative viability (LU99A; first compound 0.5 µM): 0.812 | relative viability (NCI-H1395; first compound 0.005 µM): 1.04 | relative viability (NCI-H1395; first compound 0.01581 µM): 1.01 | relative viability (NCI-H1395; first compound 0.05 µM): 1.11 | relative viability (NCI-H1395; first compound 0.1581 µM): 0.897 | relative viability (NCI-H1395; first compound 0.5 µM): 1.03 | relative viability (NCI-H1651; first compound 0.005 µM): 0.784 | relative viability (NCI-H1651; first compound 0.01581 µM): 0.78 | relative viability (NCI-H1651; first compound 0.05 µM): 0.842 | relative viability (NCI-H1651; first compound 0.1581 µM): 0.645 | relative viability (NCI-H1651; first compound 0.5 µM): 0.831 | relative viability (NCI-H1755; first compound 0.005 µM): 0.916 | relative viability (NCI-H1755; first compound 0.01581 µM): 0.865 | relative viability (NCI-H1755; first compound 0.05 µM): 0.945 | relative viability (NCI-H1755; first compound 0.1581 µM): 0.988 | relative viability (NCI-H1755; first compound 0.5 µM): 0.881 | relative viability (NCI-H1793; first compound 0.005 µM): 0.559 | relative viability (NCI-H1793; first compound 0.01581 µM): 0.7 | relative viability (NCI-H1793; first compound 0.05 µM): 0.685 | relative viability (NCI-H1793; first compound 0.1581 µM): 0.479 | relative viability (NCI-H1793; first compound 0.5 µM): 0.776 | relative viability (NCI-H1944; first compound 0.005 µM): 0.918 | relative viability (NCI-H1944; first compound 0.01581 µM): 0.854 | relative viability (NCI-H1944; first compound 0.05 µM): 0.926 | relative viability (NCI-H1944; first compound 0.1581 µM): 0.924 | relative viability (NCI-H1944; first compound 0.5 µM): 0.931 | relative viability (NCI-H2087; first compound 0.005 µM): 1.04 | relative viability (NCI-H2087; first compound 0.01581 µM): 1.12 | relative viability (NCI-H2087; first compound 0.05 µM): 1.11 | relative viability (NCI-H2087; first compound 0.1581 µM): 0.957 | relative viability (NCI-H2087; first compound 0.5 µM): 0.998 | relative viability (NCI-H2170; first compound 0.005 µM): 0.943 | relative viability (NCI-H2170; first compound 0.01581 µM): 0.982 | relative viability (NCI-H2170; first compound 0.05 µM): 0.975 | relative viability (NCI-H2170; first compound 0.1581 µM): 1.02 | relative viability (NCI-H2170; first compound 0.5 µM): 1.06 | relative viability (NCI-H2228; first compound 0.005 µM): 0.887 | relative viability (NCI-H2228; first compound 0.01581 µM): 0.985 | relative viability (NCI-H2228; first compound 0.05 µM): 1.13 | relative viability (NCI-H2228; first compound 0.1581 µM): 0.82 | relative viability (NCI-H2228; first compound 0.5 µM): 0.928 | relative viability (NCI-H2405; first compound 0.005 µM): 1.03 | relative viability (NCI-H2405; first compound 0.01581 µM): 1.04 | relative viability (NCI-H2405; first compound 0.05 µM): 1.08 | relative viability (NCI-H2405; first compound 0.1581 µM): 1.07 | relative viability (NCI-H2405; first compound 0.5 µM): 0.966 | relative viability (NCI-H3122; first compound 0.005 µM): 0.913 | relative viability (NCI-H3122; first compound 0.01581 µM): 0.962 | relative viability (NCI-H3122; first compound 0.05 µM): 0.92 | relative viability (NCI-H3122; first compound 0.1581 µM): 1.05 | relative viability (NCI-H3122; first compound 0.5 µM): 0.953 | relative viability (NCI-H460; first compound 0.005 µM): 0.983 | relative viability (NCI-H460; first compound 0.01581 µM): 0.948 | relative viability (NCI-H460; first compound 0.05 µM): 0.972 | relative viability (NCI-H460; first compound 0.1581 µM): 1.01 | relative viability (NCI-H460; first compound 0.5 µM): 0.96 | relative viability (PC-3 [JPC-3]; first compound 0.005 µM): 1.01 | relative viability (PC-3 [JPC-3]; first compound 0.01581 µM): 1.07 | relative viability (PC-3 [JPC-3]; first compound 0.05 µM): 1.07 | relative viability (PC-3 [JPC-3]; first compound 0.1581 µM): 1.06 | relative viability (PC-3 [JPC-3]; first compound 0.5 µM): 1.01 | relative viability (RERF-LC-KJ; first compound 0.005 µM): 0.821 | relative viability (RERF-LC-KJ; first compound 0.01581 µM): 0.79 | relative viability (RERF-LC-KJ; first compound 0.05 µM): 0.849 | relative viability (RERF-LC-KJ; first compound 0.1581 µM): 0.919 | relative viability (RERF-LC-KJ; first compound 0.5 µM): 0.863 | relative viability (UMC-11; first compound 0.005 µM): 1.07 | relative viability (UMC-11; first compound 0.01581 µM): 1.04 | relative viability (UMC-11; first compound 0.05 µM): 1.1 | relative viability (UMC-11; first compound 0.5 µM): 1.01
